# Results reported in US20140315956A1, “SMALL MOLECULE INHIBITORS OF IL-6 AND USES THEREOF” (NATIONWIDE CHILDREN'S HOSPITAL, priority 2011, published 2014).
# “Also recorded” adds a separate entry of the source.
# Key:
# [1] = target: T1, GP130 (Homo sapiens, UniProt P40189); assay: Literature binding of madindoline A to GP130; settings: compared with the docking free energy
# T1 sequence (P40189 23-918): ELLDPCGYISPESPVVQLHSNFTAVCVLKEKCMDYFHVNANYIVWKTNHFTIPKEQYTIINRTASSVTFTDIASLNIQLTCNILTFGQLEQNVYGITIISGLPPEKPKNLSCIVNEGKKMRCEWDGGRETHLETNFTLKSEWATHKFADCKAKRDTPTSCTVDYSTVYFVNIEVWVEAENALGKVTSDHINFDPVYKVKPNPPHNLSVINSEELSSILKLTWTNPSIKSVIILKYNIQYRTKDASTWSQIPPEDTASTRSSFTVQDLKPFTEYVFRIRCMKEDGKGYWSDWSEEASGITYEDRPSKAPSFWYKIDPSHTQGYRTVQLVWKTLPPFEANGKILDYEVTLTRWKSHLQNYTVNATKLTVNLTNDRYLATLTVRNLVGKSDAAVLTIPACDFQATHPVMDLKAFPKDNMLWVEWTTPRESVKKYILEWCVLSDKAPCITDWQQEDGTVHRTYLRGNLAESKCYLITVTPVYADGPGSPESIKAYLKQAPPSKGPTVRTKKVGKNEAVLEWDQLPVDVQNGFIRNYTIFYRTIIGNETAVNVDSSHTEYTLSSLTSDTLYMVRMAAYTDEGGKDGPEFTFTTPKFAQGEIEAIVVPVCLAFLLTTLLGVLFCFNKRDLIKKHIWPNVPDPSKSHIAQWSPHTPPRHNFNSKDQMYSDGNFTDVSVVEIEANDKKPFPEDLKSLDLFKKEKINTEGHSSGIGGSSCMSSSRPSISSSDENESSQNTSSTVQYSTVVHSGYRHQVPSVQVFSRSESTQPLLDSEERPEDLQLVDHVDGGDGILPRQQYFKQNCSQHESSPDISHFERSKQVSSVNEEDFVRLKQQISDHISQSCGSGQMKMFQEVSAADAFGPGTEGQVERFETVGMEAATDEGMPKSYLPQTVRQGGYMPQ
# Excerpt: Several synthetic approaches to the preparation of the natural product have been reported (ref. 22 and references therein), but due to the length and complexity of the syntheses cannot be applied economically in a pharmaceutical process. A structure-based approach to the synthesis of madindoline A analogues has not yet been reported.
# [2] = test system: IL-6-independent MH60 cells; settings: Omura and coworkers; cited from earlier work
# [3] = test system: Stat3 phosphorylation (p-Tyr705) induced by IL-6 in LNCaP prostate cancer cells; assay: IL-6 induced Stat3 phosphorylation in LNCaP cells, Western blot; type: cell-based; settings: IL-6 12.5 ng/ml 30 min, Western blot
# Method: LNCaP prostate cancer cells were acquired from American Type Culture Collection. Cells were maintained in RPMI 1640 medium, 1× with 4.5 g/L L-glutamine, supplemented with 10% FBS, 100 U/ml penicillin and […] streptomycin (Invitrogen), in a humidified atmosphere of 5% CO2 at 37° C.
# LNCaP prostate cancer cells were seeded in T75 flasks, grown to 50% confluence and serum-starved the following night. The cells were left untreated or were treated with MDL-A (100-400 μM), 1, 2 (5-40 μM) or DMSO in the absence of FBS. After 4 hours, the cells were stimulated with 12.5 ng/ml IL-6 (Cell Signaling Technology). The cells were then harvested at 30 minutes and washed with PBS and lysed in cold M-PER lysis buffer (Pierce) containing protease inhibitors (Sigma) and phosphatase inhibitors (Roche). Lysates were centrifuged at 14,000 rpm for 15 minutes at 4° C. and supernatants were collected and stored at −20° C. until further use.
# Cell lysates were assayed for their protein concentrations using the Bradford protein assay reagent (Pierce), using BSA (Fisher Scientific) as the standard. Lysate samples were adjusted for the same protein concentration, approximately 5 μg of sample protein was loaded into each of the appropriate lanes. Protein samples were separated by SDS-PAGE and electrotransferred to PVDF membranes. The membranes were washed and blocked with 5% BSA in TBST (60 mM Tris-base, 120 mM NaCl, 0.1% Tween-20) for at least one hour and incubated with anti-phospho-STAT3 (p-Tyr705) antibody, anti-STAT3 antibody or anti-GAPDH antibody (all from Cell Signaling Technology) in 5% BSA in TBST overnight at 4° C. Blots were then washed three times in TBST and incubated with a horseradish peroxidase-conjugated goat anti-rabbit IgG secondary antibody (Cell Signaling Technology) in 5% BSA in TBST for 1 hour at room temperature. The bound antibody was detected using Enhanced Chemiluminescence detection reagents (Pierce) according to the manufacturer's instructions and chemiluminescence visualized using ECL Hyperfilm (Amersham).
smiles,measurement,setting,value
"CCCCC1=C(C)C(=O)[C@@](C)(CN2c3ccccc3[C@]3(O)CCO[C@H]23)C1=O [MDL-A, (+)-Madindoline A, reference compound]",experimental binding free energy,[1],-5.0 kcal/mol
same,growth of IL-6-independent MH60 cells,[2],unaffected
same,inhibition of Stat3 phosphorylation induced by IL6,[3],inhibit Stat3 phosphorylation; also recorded: dose dependent inhibition
